# Experimental data as given in patent publication US9278968B2, “Imidazopyridine compounds” (ASTELLAS PHARMA INC., priority 2012, dated 2016).
# Molecular target: human purified sGC (heterodimer of sGCα1 and sGCβ1) (Homo sapiens (Human), UniProt Q02108+Q02153)
# Experiment: sGC activation test (cGMP produced, HTRF)
# Format: biochemical
# Settings: maximum activity of Preparation Example 200 compound (maximum 100 μM) taken as 100%; with SNP; read-out: EC50 (concentration giving 50% of maximum activity)
# Protocol: The activity of sGC was evaluated by measuring the amount of cGMP produced by human purified sGC.
# Using an sGCα 1 gene (NCBI accession No. BC028384.2) and an sGCβ1 gene (NCBI accession No. BC047620.1), an N-terminal FLAG tag-fused sGCα1 and an sGCβ1 expression baculovirus were prepared. These viruses were transfected into insect cells Sf9 (Cat. No. 11496-015, Gibco) to express a protein. From the cell lysates of the insect cells, heterodimers of the N-terminal FLAG tag-fused sGCα1 and sGCβ1 were purified with an M2 Affinity Gel (Sigma-Aldrich, Inc.) to obtain a human sGC.
# An Example compound was dissolved in DMSO and diluted 20-fold with ultrapure water. 2 μL of the diluted Example compound solution (maximum concentration of 100 μM), 2 μL of a substrate solution [0.5 μM triethanolamine buffer solution, 0.03 μM dithiothreitol, 0.01 μM GTP, 0.04 μM MgCl2, and 0.03 μM sodium nitroprusside (SNP)], and 6 μL of a human enzyme suspension were added to 384-well plates (manufactured by Greiner Bio-One), and incubated at room temperature for one hour. The measurement of the amount of cGMP was carried out, using an HTRF reagent (Cisbio).
# The sGC activation action of the Example compound was calculated as an Example compound concentration which gives 50% of a maximum activity (EC50), in which the maximum activity by the addition of a compound shown in Preparation Example 200, 8-(cyclohexylmethoxy)-N-[(1R)-2-hydroxy-1-phenylethyl]-2-methylimidazo[1,2-a]pyridine-3-carboxamide hydrochloride (maximum 100 μM), is taken as 100%. Further, the maximum activity of sGC with the addition of 8-(cyclohexylmethoxy)-N-[(1R)-2-hydroxy-1-phenylethyl]-2-methylimidazo[1,2-a]pyridine-3-carboxamide hydrochloride is 10-fold or more relative to the sGC activation without the addition of the compound, and it is recognized that the compound has a good sGC activating action. […] The test results of some Example compounds that are the compounds of the formula (I) of the present invention are shown below. Further, in Tables, Ex. represents Example number.
# Chain of human purified sGC (heterodimer of sGCα1 and sGCβ1) (Q02108 whole entry): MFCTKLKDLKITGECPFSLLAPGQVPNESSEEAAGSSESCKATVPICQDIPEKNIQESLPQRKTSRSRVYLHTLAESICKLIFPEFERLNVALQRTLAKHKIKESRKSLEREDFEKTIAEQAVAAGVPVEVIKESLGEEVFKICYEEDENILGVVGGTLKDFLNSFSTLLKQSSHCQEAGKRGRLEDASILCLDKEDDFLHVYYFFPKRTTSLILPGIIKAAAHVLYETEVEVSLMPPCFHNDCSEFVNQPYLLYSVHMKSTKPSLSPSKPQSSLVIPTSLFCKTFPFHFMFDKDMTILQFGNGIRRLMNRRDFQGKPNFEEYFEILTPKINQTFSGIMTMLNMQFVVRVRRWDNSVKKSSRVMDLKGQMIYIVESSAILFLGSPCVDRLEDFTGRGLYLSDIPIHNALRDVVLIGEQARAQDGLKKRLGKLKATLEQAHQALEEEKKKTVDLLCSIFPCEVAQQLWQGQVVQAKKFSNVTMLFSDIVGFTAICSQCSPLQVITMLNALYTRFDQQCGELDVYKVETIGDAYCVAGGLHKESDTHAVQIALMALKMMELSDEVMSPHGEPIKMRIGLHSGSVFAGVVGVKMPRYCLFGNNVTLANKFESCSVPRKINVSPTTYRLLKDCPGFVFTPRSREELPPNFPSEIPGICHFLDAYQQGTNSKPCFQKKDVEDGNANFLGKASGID
# Chain of human purified sGC (heterodimer of sGCα1 and sGCβ1) (Q02153 whole entry): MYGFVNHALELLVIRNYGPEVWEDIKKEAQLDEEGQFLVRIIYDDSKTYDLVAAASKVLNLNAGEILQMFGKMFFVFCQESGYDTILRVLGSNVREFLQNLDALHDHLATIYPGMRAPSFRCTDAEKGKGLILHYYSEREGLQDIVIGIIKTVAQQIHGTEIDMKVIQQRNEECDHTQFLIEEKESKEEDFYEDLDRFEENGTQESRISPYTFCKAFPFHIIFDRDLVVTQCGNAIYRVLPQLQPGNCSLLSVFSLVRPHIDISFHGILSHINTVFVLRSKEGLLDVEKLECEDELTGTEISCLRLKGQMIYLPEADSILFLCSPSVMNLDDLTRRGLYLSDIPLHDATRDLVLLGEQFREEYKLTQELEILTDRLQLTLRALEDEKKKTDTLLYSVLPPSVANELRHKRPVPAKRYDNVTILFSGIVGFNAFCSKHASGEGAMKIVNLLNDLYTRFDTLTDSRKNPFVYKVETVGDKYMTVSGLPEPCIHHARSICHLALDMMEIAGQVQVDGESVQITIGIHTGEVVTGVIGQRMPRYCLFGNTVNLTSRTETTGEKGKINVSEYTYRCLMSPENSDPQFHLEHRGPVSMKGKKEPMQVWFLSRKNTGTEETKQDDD
row,EC50 [µM],SMILES
1,12,Cc1nc2c(OCc3c(F)cccc3F)cccn2c1C(=O)N[C@]1(c2ccccc2)CC[C@@H](O)[C@H]1O (racemic) [Example 27]
2,13,Cc1nc2c(OCc3c(F)cccc3F)cccn2c1C(=O)N[C@]1(c2ccccc2)CC[C@H](O)[C@H]1O (racemic) [Example 28]
3,11,Cc1nc2c(OCc3c(F)cccc3F)cccn2c1C(=O)NCc1cccnc1[C@@H](O)[C@@H](C)O (racemic) [Example 89]
4,9.8,Cc1nc2c(OCc3c(F)cccc3F)cccn2c1C(=O)NCc1ccncc1[C@@H](O)[C@@H](C)O (racemic) [Example 90]
5,1.9,Cc1nc2c(OCc3c(F)cccc3F)cccn2c1C(=O)N[C@@H](C)c1ccccc1[C@@H](O)CO (stereo in doubt) [Example 59]
6,0.72,"Cc1nc2c(OCC3CCCCC3)cccn2c1C(=O)N[C@@](C)(CO)c1cccc(C(=O)O)c1 [Example 3, 3-[(2R)-2-({ [8-(cyclohexylmethoxy)-2-methylimidazo[1,2-a]pyridin-3-yl]carbonyl}amino)-1-hydroxypropan-2-yl]benzoic acid]"
7,1.4,"Cc1nc2c(OCc3c(F)cccc3F)cccn2c1C(=O)NC(C)(CO)c1ccc(CO)cc1 (centres unmarked) [Example 4, 8-[(2,6-difluorobenzyl)oxy]-N-{1-hydroxy-2-[4-(hydroxymethyl)phenyl]propan-2-yl}-2-methylimidazo[1,2-a]pyridine-3-carboxamide]"
8,6.4,"Cc1nc2c(OCc3c(F)cccc3F)cccn2c1C(=O)NCc1ccccc1C(O)CO (centres unmarked) [Example 5, 8-[(2,6-difluorobenzyl)oxy]-N-[2-(1,2-dihydroxyethyl)benzyl]-2-methylimidazo[1,2-a]pyridine-3-carboxamide]"
9,0.78,Cc1nc2c(OCc3c(F)cccc3F)cccn2c1C(=O)N[C@@](C)(CO)c1cccc(C(N)=O)c1 [Example 12]
10,4.4,Cc1nc2c(OCc3c(F)cccc3F)cccn2c1C(=O)NC(C)(CO)c1ncccn1 (centres unmarked) [Example 14]
11,2.8,Cc1nc2c(OCc3ccccc3F)cccn2c1C(=O)N[C@@](C)(CO)c1cccc(CO)c1 [Example 15]
12,2.1,Cc1cnc([C@H](CO)NC(=O)c2c(C)nc3c(OCc4c(F)cccc4F)cccn23)s1 [Example 16]
13,4,Cc1nc2c(OCc3c(F)cccc3F)cccn2c1C(=O)N[C@@](C)(CO)c1nc(CO)cs1 [Example 21]
14,9.8,Cc1nc2c(OCc3ncccc3F)cccn2c1C(=O)N[C@@](C)(CO)c1ccccc1F [Example 23]
15,3.6,Cc1ncc([C@H](CO)NC(=O)c2c(C)nc3c(OCc4c(F)cccc4F)cccn23)s1 [Example 24]
16,24,Cc1nc2c(OCc3c(F)cccc3F)cccn2c1C(=O)N[C@@H](CO)c1nnn(C)n1 [Example 26]
17,5.6,Cc1nc2c(OCc3c(F)cccc3F)cccn2c1C(=O)NCc1ccccc1[C@H](O)[C@H](C)O [Example 30]
18,8.2,Cc1nc2c(OCc3c(F)cccc3F)cccn2c1C(=O)NCc1ccccc1[C@@H](O)[C@H](C)O [Example 32]
19,7.4,Cc1nc2c(OCc3c(F)cccc3F)cccn2c1C(=O)NCc1ccccc1[C@H](O)[C@@H](C)O [Example 33]

row,EC50 [µM],SMILES
1,33,Cc1nnc([C@H](CO)NC(=O)c2c(C)nc3c(OCc4c(F)cccc4F)cccn23)o1 [Example 42]
2,16,CCc1nnc([C@H](CO)NC(=O)c2c(C)nc3c(OCc4c(F)cccc4F)cccn23)o1 [Example 44]
3,20,Cc1nc2c(OCc3c(F)cccc3F)cccn2c1C(=O)N[C@@H](CO)c1nnc(C2CC2)o1 [Example 46]
4,2.7,Cc1nc2c(OCc3c(F)cccc3F)cccn2c1C(=O)NC(C)(CO)c1cncnc1 (centres unmarked) [Example 48]
5,25,Cc1nc2c(OCc3c(F)cccc3F)cccn2c1C(=O)NC(CO)c1cnn(C)c1 (centres unmarked) [Example 49]
6,7.9,Cc1nc2c(OCc3c(F)cccc3F)cccn2c1C(=O)NC(C)(CO)c1cnn(C)c1 (centres unmarked) [Example 50]
7,12,Cc1nc2c(OCc3ccccc3F)cccn2c1C(=O)NC(C)(CO)c1ccc(CO)cc1 (centres unmarked) [Example 51]
8,1.7,Cc1nc2c(OCc3c(F)cccc3F)cccn2c1C(=O)NC(CO)(CO)c1cccc(CO)c1 [Example 53]
9,2,Cc1nc2c(OCc3c(F)cccc3F)cccn2c1C(=O)NC(CO)(CO)c1cccc(F)c1 [Example 55]
10,8.5,Cc1ccc(C(CO)(CO)NC(=O)c2c(C)nc3c(OCc4c(F)cccc4F)cccn23)nc1 [Example 56]
11,3.7,Cc1nc2c(OCc3c(F)cccc3F)cccn2c1C(=O)NC(CO)(CO)c1ccc(F)cn1 [Example 57]
12,3.3,COc1ccc(C(CO)(CO)NC(=O)c2c(C)nc3c(OCc4c(F)cccc4F)cccn23)cn1 [Example 58]
13,12,Cc1cnc(C(CO)(CO)NC(=O)c2c(C)nc3c(OCc4c(F)cccc4F)cccn23)o1 [Example 60]
14,6.4,Cc1nc2c(OCc3cccc(F)c3F)cccn2c1C(=O)NC(CO)(CO)c1ccc(F)cc1 [Example 61]
15,6.5,Cc1ccnc(C(CO)(CO)NC(=O)c2c(C)nc3c(OCc4c(F)cccc4F)cccn23)c1 [Example 62]
16,30,Cc1nc2c(OCc3c(F)cccc3F)cccn2c1C(=O)NC(CO)(CO)c1nnn(C)n1 [Example 64]
17,16,Cc1nc2c(OCC3CCCCC3)cccn2c1C(=O)NC(CO)(CO)c1nnn(C)n1 [Example 66]
18,14,Cc1nc2c(OCC3CCCCC3)cccn2c1C(=O)N[C@]1(c2ccccn2)C[C@@H](O)[C@@H](O)C1 [Example 68]
19,21,Cc1nc2c(OCc3c(F)cccc3F)cccn2c1C(=O)NC(CO)(CO)c1cnn(C)c1 [Example 71]

row,EC50 [µM],SMILES
1,6.4,Cc1nc2c(OCC3CCCCC3)cccn2c1C(=O)NC(C)(CO)c1nnn(C)n1 (centres unmarked) [Example 73a]
2,12,COCCn1nnc(C(C)(CO)NC(=O)c2c(C)nc3c(OCc4c(F)cccc4F)cccn23)n1 (centres unmarked) [Example 74]
3,9.1,Cc1nc2c(OCc3c(F)cccc3F)cccn2c1C(=O)NC(C)(CO)c1nnn(CCO)n1 (centres unmarked) [Example 75]
4,5.1,Cc1ncc(C(CO)(CO)NC(=O)c2c(C)nc3c(OCc4c(F)cccc4F)cccn23)s1 [Example 78]
5,7.1,Cc1nc2c(OCc3c(F)cccc3F)cccn2c1C(=O)NC(C)(C)c1cccc(C(N)=O)c1 [Example 80]
6,21,Cc1nc2c(OCc3cccc(F)c3F)cccn2c1C(=O)NC(C)(CO)c1nnn(C)n1 (centres unmarked) [Example 82]
7,7.1,Cc1nnc(C(C)(CO)NC(=O)c2c(C)nc3c(OCC4CCCCC4)cccn23)o1 (centres unmarked) [Example 84]
8,2.9,[C-]#[N+]c1cccc([C@](C)(CO)NC(=O)c2c(C)nc3c(OCC4CCCCC4)cccn23)c1 [Example 85]
9,5.6,CCc1nnc(C(C)(CO)NC(=O)c2c(C)nc3c(OCC4CCCCC4)cccn23)o1 (centres unmarked) [Example 86]
10,5.9,Cc1nc2c(OCc3c(F)cccc3F)cccn2c1C(=O)NC(C)(CO)c1nnc(C2CC2)o1 (centres unmarked) [Example 87]
11,5.3,Cc1nc2c(OCC3CCCCC3)cccn2c1C(=O)NC(C)(CO)c1nnc(C2CC2)o1 (centres unmarked) [Example 88]
12,1.4,Cc1nc2c(OCC3CCCCC3)cccn2c1C(=O)NC(C)(CO)c1nnc(C(F)(F)F)o1 (centres unmarked) [Example 92]
13,21,Cc1nc2c(OCc3c(F)cccc3F)cccn2c1C(=O)NC(C)(CO)c1cnn(C)c1C (centres unmarked) [Example 93]
14,14,Cc1nn(C)cc1C(C)(CO)NC(=O)c1c(C)nc2c(OCc3c(F)cccc3F)cccn12 (centres unmarked) [Example 94]
15,18,Cc1nc2c(OCc3c(F)cccc3F)cccn2c1C(=O)NC(CO)(CO)c1ccn(C)n1 [Example 95]
16,3.5,Cc1nc2c(OCC3CCCCC3)cccn2c1C(=O)NC(CO)(CO)c1nnn(C(F)F)n1 [Example 97]
17,24,Cc1nnc(C(CO)(CO)NC(=O)c2c(C)nc3c(OCC4CCCCC4)cccn23)o1 [Example 98]
18,17,CCc1nnc(C(CO)(CO)NC(=O)c2c(C)nc3c(OCC4CCCCC4)cccn23)o1 [Example 99]

row,SMILES,EC50 [µM]
1,Cc1nc2c(OCC3CCCCC3)cccn2c1C(=O)N[C@@](C)(CO)c1cccc(C(N)=O)c1 [Example 13],0.84
2,Cc1nc2c(OCC3CCCCC3)cccn2c1C(=O)N[C@@H](CO)c1nnnn1C [Example 29],17
3,Cc1nc2c(OCC3CCCCC3)cccn2c1C(=O)N[C@@H](CO)c1nnn(C)n1 [Example 34],11
4,Cc1nnc([C@H](CO)NC(=O)c2c(C)nc3c(OCC4CCCCC4)cccn23)o1 [Example 43],14
5,CCc1nnc([C@H](CO)NC(=O)c2c(C)nc3c(OCC4CCCCC4)cccn23)o1 [Example 45],9.1
6,Cc1nc2c(OCC3CCCCC3)cccn2c1C(=O)N[C@@H](CO)c1nnc(C2CC2)o1 [Example 47],13
